Laboratory results taken from patent US9290764B2, “RNAi for the control of insects and arachnids” (Devgen NV, priority 2005, dated 2016).

B1: Bg001 concatemer 2: dsRNA concatemer, five times repeat of a 50 bp Bg001 fragment (SEQ ID NO 66) (nucleic acid)
DNA: CTTGGGTCGTGTTGGAACTGTAGTTAATCGAGAACGTCATCCTGGTTCCTCTTGGGTCGTGTTGGAACTGTAGTTAATCGAGAACGTCATCCTGGTTCCTCTTGGGTCGTGTTGGAACTGTAGTTAATCGAGAACGTCATCCTGGTTCCTCTTGGGTCGTGTTGGAACTGTAGTTAATCGAGAACGTCATCCTGGTTCCTCTTGGGTCGTGTTGGAACTGTAGTTAATCGAGAACGTCATCCTGGTTCCT
modifications: Concatemer

System: German cockroach, Blattella germanica
Assay: Cockroach laboratory trial of Bg001 dsRNA and Bg001 concatemer 2 (mortality and moulting to adult)
Type: in vivo
Conditions: for number of cockroaches successfully moulting to the adult stage, as a percentage of live insects (means±standard errors, n=4): pellets 1% w/w
Procedure: Table 3: Effect of dsRNA treatments on the number of cockroaches successfully moulting to the adult stage, as a percentage of live insects (means±standard errors, n=4)
FIG. 2: Mortality of B. germanica on artificial pellet diet. The concentration of dsRNA (Bg001, having the sequence as represented as SEQ ID NO 9, and Bg001 concatemer 2, having the sequence as represented as SEQ ID NO 68) in the pellets was 1% w/w. In this experiment, hexaflumuron (1% w/w) was tested as a positive control and solvent as a negative control.
Stock solutions of 1-10 μg/μl dsRNA in distilled water were prepared. Each dsRNA solution was diluted to the appropriate concentration and mixed with finely ground laboratory diet (Rat and mouse standard diet, B&K Universal Ltd, Hull, UK), which was previously heat treated in order to inactivate any enzymes. The mixture or formulation was formed into small pellets of equal weight (0.3 g) to achieve an end concentration of 0.1% to 2% w/w dsRNA and dried overnight at room temperature.
Newly hatched nymphs from the German cockroach, B. germanica were housed per 10 in plastic lidded containers (29±2° C., minimum 40% relative humidity, with a 12:12 light:dark photoperiod). Animals were starved 24 hours prior to exposure to the pellets. The cockroaches were assessed as live, moribund or dead twice a week until adulthood. The pellet was replaced with freshly prepared pellet once a week. dsRNA containing pellets, formulations, were compared with a negative control (solvent) and a positive control (1 or 2% imidacloprid, commonly used in commercially available cockroach baits).
Concatemers were designed for each target gene. Concatemers are synthetic tandem repeats of 50 to 100 bp dsfragments. In the present example, concatemers were designed by selecting the best possible fragments in regions with homology in protein family as well as at nucleotide level, in regions containing the best predicted siRNAs and in regions with between 40 and 60% GC content, preferably about 50% GC content, if possible.
For Bg001 two concatemers were designed consisting of a five times repeat of a 50 bp fragment, ie represented by SEQ ID NO 65 and 66, resulting in Bg001 concatemer 1 and Bg001 concatemer 2, herein represented respectively as SEQ ID NO 67 and SEQ ID NO 68, and one concatemer was designed consisting of a three times repeat of a 100 bp repeat, ie represented by SEQ ID NO 69, resulting in Bg001 concatemer 3, herein represented as SEQ ID NO 70. XbaI and SmaI flanking sites were added for cloning in a vector to produce dsRNA. These dsRNA constructs comprising the concatemers were tested in the cockroach laboratory trials.
For example at day 48, from the surviving cockroaches treated with Bg001 only 33.3 moulted to the adult stage whereas none of the cockroaches treated with Bg001 concatemer 2 did within this time as shown in Table 3.

Molecule | number of cockroaches successfully moulting to the adult stage, as a percentage of live insects (means±standard errors, n=4) (Day 38) | number of cockroaches successfully moulting to the adult stage, as a percentage of live insects (means±standard errors, n=4) (Day 41) | number of cockroaches successfully moulting to the adult stage, as a percentage of live insects (means±standard errors, n=4) (Day 45) | number of cockroaches successfully moulting to the adult stage, as a percentage of live insects (means±standard errors, n=4) (Day 48) | number of cockroaches successfully moulting to the adult stage, as a percentage of live insects (means±standard errors, n=4) (Day 52) | mortality compared to the negative control (solvent) (artificial pellet diet, dsRNA 1% w/w (FIG. 2))
O=C(NC(=O)c1c(F)cccc1F)Nc1cc(Cl)c(OC(F)(F)C(F)F)c(Cl)c1 [Positive control, hexaflumuron] | 0.0 (±0.0) % | 0.0 (±0.0) % | 0.0 (±0.0) % | 0.0 (±0.0) % | 0.0 (±0.0) % | 
B1 | 0.0 (±0.0) % | 0.0 (±0.0) % | 0.0 (±0.0) % |  | 0.0 (±0.0) % | significant higher
